# Laboratory results published in the PolyMetriX glass transition set.
row,SMILES,glass transition temperature [°C]
1,*CC(*)c1c(F)c(F)c(OC)c(F)c1F (repeat unit),94.00
2,*C(=O)Nc1cc(NC(=O)c2cncc(*)c2)cc(-c2nnc(-c3ccccn3)o2)c1 (repeat unit),185.00
3,*CCCCCCCCCCCCCCC(=O)N* (repeat unit),-7.00
4,*C1C(=O)OC(=O)C1C1C2CC(C(=O)OC3CCCCC3)C(C2)C1* (repeat unit),195.00
5,*CC(*)(C)C(=O)OCCCCCCn1c2ccccc2c2ccccc21 (repeat unit),73.00
6,*c1ccc2c(c1)C(=O)N(c1cccc(C(=O)Nc3ccc(Oc4ccc(NC(=O)c5cccc(N6C(=O)c7ccc(C(*)(C(F)(F)F)C(F)(F)F)cc7C6=O)c5)cc4)cc3)c1)C2=O (repeat unit),298.00
7,*CCCCCCOC(=O)OCCCCCCCCOC(=O)OCCCCCCOc1ccc(Oc2ccc(O*)cc2)cc1 (repeat unit),-17.00
8,*CC(*)(C)C(=O)OCc1cc(Cl)cc(Cl)c1 (repeat unit),30.0
9,*c1cccc(N2C(=O)c3ccc(Oc4ccc5c(c4)C4(CC(C)(C)c6ccc(Oc7ccc8c(c7)C(=O)N(*)C8=O)cc64)CC5(C)C)cc3C2=O)c1 (repeat unit),253.00
10,*c1ccc(Oc2ccc(-c3ccc(Oc4ccc(N5C(=O)c6cccc(Oc7ccc(C(c8ccc(Oc9cccc%10c9C(=O)N(*)C%10=O)cc8)(C(F)(F)F)C(F)(F)F)cc7)c6C5=O)cc4)cc3)cc2)cc1 (repeat unit),234.00
11,*c1ccc(Oc2ccc(S(=O)(=O)c3ccc(Oc4ccc(-c5nc(-c6ccccc6)[nH]c5*)cc4)cc3)cc2)cc1 (repeat unit),277.00
12,*Oc1ccc(Oc2ccc(Oc3ccc(C(=O)c4ccc(*)cc4)cc3)cc2)cc1 (repeat unit),150.50
13,*CC1CCCC(CNC(=O)c2cccc(C(=O)N*)c2)C1 (repeat unit),180.00
14,*Nc1ccc(Cc2ccc(NC(=O)c3cc(NC(=O)CCCCCCCCCCN4C(=O)c5ccccc5C4=O)cc(C(*)=O)c3)cc2)cc1 (repeat unit),150.00
15,*Oc1ccc(NC(=O)c2ccc(C(=O)Nc3ccc(OC4COC5C(*)COC45)cc3)cc2)cc1 (repeat unit),57.00
16,*C(=O)Nc1ccc(Cc2ccc(NC(=O)c3ccc(N4C(=O)c5ccc(*)cc5C4=O)cc3)cc2)cc1 (repeat unit),222.00
17,*=Nc1ccc(C(C)(C)c2ccc(C(C)(C)c3ccc(/N=C4/OC(=O)c5ccc(Oc6ccc7c(c6)C(=O)OC7=*)cc54)cc3)cc2)cc1 (repeat unit),249.00
18,*C1C(=O)N(c2ccccc2C)C(=O)C1* (repeat unit),335.00
19,*CC(CCCCCCOc1ccc(/N=N/c2ccc(Br)cc2)cc1)COC(=O)CCCCC(=O)O* (repeat unit),24.00
20,*C(=O)c1cc2c(cc1Cl)C(=O)N(c1c(C)cc(C)c(N3C(=O)c4cc(*)c(Cl)cc4C3=O)c1C)C2=O (repeat unit),371.00
21,*CCOC(=O)NCCCCCCNC(=O)OCCOc1ccc(C2(c3ccc(O*)cc3)c3ccccc3-c3ccccc32)cc1 (repeat unit),61.00
22,*CCN(*)C(=O)c1ccc(SC(F)(F)F)cc1 (repeat unit),100.00
23,*C([2H])([2H])C(*)([2H])C([2H])=C([2H])[2H] (repeat unit),1.00
24,*Nc1ccc(C(c2ccc(NC(=O)c3cc(C(*)=O)cc(C(C)(C)C)c3)cc2)(P2(=O)Oc3ccccc3-c3ccccc32)P2(=O)Oc3ccccc3-c3ccccc32)cc1 (repeat unit),235.00
25,*CC/C=C/C[Si](*)(C)c1ccccc1 (repeat unit),-14.90
26,*CCCCCCCCCCCCCCNC(=O)NCCCCCCNC(=O)N* (repeat unit),47.00
